# Experimental data taken from patent EP1928842B1, “4-PHENYL-6-SUBSTITUTED-PYRIMIDINE-2-CARBONITRILE DERIVATIVES” (priority 2005, dated 2007).
# Biological target: T1, recombinant human Cathepsin K (Homo sapiens, UniProt P43235)
# T1 sequence (P43235 115-329): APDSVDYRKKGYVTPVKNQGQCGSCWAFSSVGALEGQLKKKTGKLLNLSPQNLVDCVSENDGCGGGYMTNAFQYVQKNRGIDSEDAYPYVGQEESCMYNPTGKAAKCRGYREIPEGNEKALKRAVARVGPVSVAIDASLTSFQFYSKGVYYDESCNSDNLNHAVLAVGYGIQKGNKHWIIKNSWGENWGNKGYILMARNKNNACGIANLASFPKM
# Test: Cathepsin K activity: inhibition of recombinant human Cathepsin K (fluorogenic substrate Z-Phe-Arg-AMC)
# Type: biochemical
# Details: sodium acetate pH5.5, fluorescence at 10 minutes, read-out: pIC50 (negative logarithm of the IC50 concentration) for inhibition of human cathepsin K (converted)
# Procedure: 10µl of a 1mg/l solution of activated recombinant human cathepsin K, in assay buffer, is then added to the well, yielding a final inhibitor concentration of 10µM. • Enzyme activity is determined by measuring the fluorescence of the liberated aminomethylcoumarin at […] using 390nm excitation, at 10 minutes. Percentage enzyme activity is calculated by comparison of this activity to that of a solution containing no inhibitor. Compounds are subsequently subjected to a dose response curve analysis in order to determine IC50 values for active compounds (where IC50 is the concentration of test compound causing 50 % inhibition of the enzymatic activity). Compounds of the invention typically have a pIC50 (negative logarithm of the IC50 concentration) for inhibition of human cathepsin K of more than 6, preferably more than 7 and most preferably a pIC50 of more than 8, such as for the compounds of Examples 1, 2a, 2b, 3, 5, 6, 8, 12, 14, 13, 16k, 16n, 16o, 17, 22a, 22b, 22c
smiles,measurement,value
"CC(C)N1CCN(c2cc(-c3cccc(C(F)(F)F)c3)nc(C#N)n2)CC1 [Example 3, 4-(4-Isopropyl-piperazin-1-yl)-6-(trifluoromethyl-phenyl)-pyrimidine-2-carbonitrile]",IC50,< 10 nM
